SMILES strings stand for the structures. pIC50: −log10 of the molar value. “Also recorded” adds a separate entry of the source. Where two headings read alike, the source gives them in different places.

Consider six molecules from article PMC4323000 (Oncotarget, 2015).

Data set [1] can be described thus: Pharmacokinetic study of MBL-II-141, CPT-11 and SN-38 (blood, liver, brain; LC-MS/MS). Particulars: for Mean of differences in Blood levels, compound alone versus CPT-11 + MBL-II-141: P (two tailed): CPT-11 0.3616, SN-38 0.0299, MBL-II-141 0.1555; for Mean of differences in Liver levels, compound alone versus CPT-11 + MBL-II-141: P (two tailed): CPT-11 0.6878, SN-38 0.1727, MBL-II-141 0.1046.
Procedure: In order to achieve possible cumulative effects, reiterated administrations (two or three) were carried out with a 4 h time interval between administrations. Blood samples were collected at either 1 h or 4 h after the last injection.
Total blood samples were collected using dried heparinized syringes, avoiding modification of samples. Blood and plasma were stored at −80°C. […] Tissues were crushed using a dried cold system.
Both assays were performed on a C18 column HypersilGold, (ThermoElectron), 3.0 μm, (100 mm × 2.1 mm i.d.). The mass spectrometry analysis was performed in positive ion mode with electrospray source. […] A volume of 50 μL of whole blood or tissue solution was introduced into a conic centrifuge and 50 μL of solution of the internal standard and 300 μL of cold acetonitrile were added. The sample was mixed and centrifuged for 10 min at 13000 g at 5°C. […] The residues were resuspended in 100 μL of mobile phase and 10 μL were injected into the HPLC device. […] When the concentration was over the upper standard concentration, a dilution of the sample was performed using blank whole blood or appropriate tissues. Peak area ratios of compound to the respective internal standard measured at each nominal concentration were used to construct weighted (1/concentration) least-square linear regression curves. […] Results in tissues were normalized to cellular protein content. Results in tissues were normalized to cellular protein content (C1600 Abott technology).

A further data set deals with HEK-pcDNA3.1 xenografts. The experiment in a line: Chemosensitization study, just-established ABCG2-negative tumors. The settings on record: CPT-11 alone 20 mg/kg.
The test system of data set [2] is ABCG2. The settings on record: read-out: In vitro Inhibition (IC50), cited from earlier work.
Data set [3] concerns ABCG2. The settings on record: ref per compound in Table 2; cited from earlier work.
Data set [4] deals with ABCG2-overexpressing tumors. The settings on record: ref per compound in Table 2; cited from earlier work.
For data set [5] the following is noted: cited from earlier work.
The conditions of data set [6]: cited from earlier work. The source holds these as a separate data set.
Where [7] appears, read: CPT-11 20 mg/kg + MBL-II-141 10 mg/kg IP.
Where [8] appears, read: substrate Mitoxantrone, ref [13],[21],[35],[45]–[48] (GF120918), [7] (Triclabendazole).
The mark [9] stands for this setting: substrate Hoechst 3342, ref [6],[24],[49] (Ko143), [40] (YHO-13177).
The mark [10] stands for this setting: I.P., ref per compound in Table 2.
Setting [11] is: oral, ref per compound in Table 2.

Procedure for HEK-pcDNA3.1 xenografts: 4.10^6 HEK-pcDNA3.1 or HEK-ABCG2 cells were sub-cutaneously injected into one flank of each SCID mouse, in solution with 50% matrigel. After the apparition of most tumors, mice were randomly distributed into 4 groups of 20 animals (10 ABCG2 negative and 10 ABCG2-positive tumors). […] Two independent injections were carried out per mouse.
Treatments were intraperitoneally administered three times a week until mice sacrifice. […] Finally, mice were sacrificed when the tumor diameter reached 17 mm.
Growth models. Tumor growth curves were modeled with GraphPad© Software. Gaussian distribution models were obtained according to the equation Y = Amplitude*exp (−0.5*((X-Mean)/SD)^2). The amplitude was the height of the center of the distribution in Y units. Mean was the X value at the center of the distribution. SD was a measure of the width of the distribution, in the same units as X. Another model was applied for sum of two Gaussian distributions with Y = one + two (One = Amplitude 1*exp(−0.5*((X-Mean1)/SD1)^2) and Two = Amplitude 2*exp(−0.5*((X-Mean2)/SD2)^2)). Amplitudes were the heights of the center of the distribution in Y units. Means were the X values at the center of the two distributions. SDs were measures of the widths of the distributions, in the same units as X.
Paired t-test. The statistical test used was the paired t-test. It was applied for all data of growth tumor experiments and pharmacokinetics data.

Consider `CCc1c2c(nc3ccc(OC(=O)N4CCC(N5CCCCC5)CC4)cc13)-c1cc3c(c(=O)n1C2)COC(=O)[C@]3(O)CC` [CPT-11, irinotecan], for which the “increase of CPT-11 brain levels in the presence of MBL-II-141” value in data set [1] (setting [7]) is reported as “approximately 2 fold”. For the same molecule, the “fraction lost from the blood at 4 h” value in data set [1] (CPT-11 20 mg/kg IP) came out at 90%. In data set [1] (paired t-test over time, P (two tailed): CPT-11 0.0416, MBL-II-141 0.1059), the “Mean of differences in Brain levels, compound alone versus CPT-11 + MBL-II-141” value was -2.085. Further, in data set [1] (paired t-test over time), the “Mean of differences in Blood levels, compound alone versus CPT-11 + MBL-II-141” value is listed as -220.0 and the “Mean of differences in Liver levels, compound alone versus CPT-11 + MBL-II-141” value is recorded as -28.86. In the data set on HEK-pcDNA3.1 xenografts, the “effect on growth of ABCG2-negative cells (tumors)” value is reported as “completely blocked” and the “survival of mice bearing ABCG2-negative tumors” value turned out to be 100%.

For the molecule `COc1cc2c(cc1OC)CN(CCc1ccc(NC(=O)c3cccc4c(=O)c5cccc(OC)c5[nH]c34)cc1)CC2` [GF120918], the pIC50 (as a rule, the negative decadic logarithm of the IC50, by convention in mol/L) with ABCG2 [2] (setting [8]) was 6.51. In the data set with ABCG2 [3], the “In vitro ABCG2 Specificity” value was “No”. Further, the “In vivo Impact on Tumor growth” value in data set [4] is given as “Yes”.

In the case of `COc1ccc2c3c([nH]c2c1)[C@H](CC(C)C)N1C(=O)[C@H](CCC(=O)OC(C)(C)C)NC(=O)[C@@H]1C3` [Ko143], the pIC50 in the data set with ABCG2 [2] (setting [9]) is […]; with ABCG2 [2] (substrate Pheophorbide A, ref [6],[24],[49]) it was […]. Besides, the “In vivo Toxicity, Acute” value in data set [5] (setting [10]) is […]; in data set [5] (setting [11]), greater than 50 mg/kg oral. Also, in the data set with ABCG2 [3], the “In vitro ABCG2 Specificity” value is listed as “Yes”. For the same molecule, in data set [6] (ABCB1(−/−) mice), the “increase of topotecan plasma levels (oral availability)” value was […]. The “In vivo Impact on Pharmacokinetics” value in data set [6] (of Topotecan, ref [13],[21],[35],[45]–[48] (GF120918), [6],[24],[49] (Ko143)) is reported as “Topotecan: Yes”.

Regarding `CCc1c2c(nc3ccc(O)cc13)-c1cc3c(c(=O)n1C2)COC(=O)[C@]3(O)CC` [SN-38], the “Liver/Plasma ratio, fold-change induced by the combination treatment” value is reported as 0.9 fold-change in data set [1] (30 min); 0.6 fold-change in data set [1] (60 min); 1.1 fold-change in data set [1] (120 min); 1.0 fold-change in data set [1] (240 min); 1.0 fold-change in data set [1] (480 min). For the same molecule, the “change of SN-38 blood levels in the presence of MBL-II-141” value in data set [1] (setting [7]) was “increased; also recorded: strongly increased”. Moreover, the “difference between CPT-11 and SN-38 levels (SN-38 lower)” value in data set [1] (SCID mice) was 19 fold. For the same molecule, in data set [1] (SN-38 after CPT-11 20 mg/kg IP), the “time until which detected in blood” value is given as 6 h. In data set [1] (after CPT-11 20 mg/kg IP, with or without MBL-II-141), the “SN-38 levels in the brain” value is recorded as “below the limits of quantification; also recorded: under the limit of detection”. Moreover, the “Mean of differences in Blood levels, compound alone versus CPT-11 + MBL-II-141” value in data set [1] (paired t-test over time) was -109.6. Also, in data set [1] (paired t-test over time), the “Mean of differences in Liver levels, compound alone versus CPT-11 + MBL-II-141” value was -12.65. The “SN-38 plasma levels lower than CPT-11” value in data set [6] (ICR mice, 1 h after the injection) was 27 fold.

As to `CSc1nc2cc(Cl)c(Oc3cccc(Cl)c3Cl)cc2[nH]1` [Triclabendazole], the pIC50 with ABCG2 [2] (setting [8]) was roughly 5.00. The “In vivo Toxicity, Acute” value in data set [5] (setting [10]) is listed as greater than 100 mg/kg I.P. In addition, the “In vivo Impact on Pharmacokinetics” value in data set [6] (of Nitrofurantoin, ref [7]) is given as “Nitrofurantoin: Yes”.

With `COc1ccc(/C(C#N)=C/c2ccc(N3CCC(O)CC3)s2)cc1OC` [YHO-13177], the pIC50 in the data set with ABCG2 [2] (setting [9]) is roughly 6.52. For the same molecule, the “In vivo Toxicity, Acute” value in data set [5] (I.V., ref [13],[21],[35],[45]–[48] (GF120918), [40] (YHO-13177)) is greater than 30 mg/kg I.V; in data set [5] (setting [11]), greater than 200 mg/kg oral. In the data set with ABCG2 [3], the “In vitro ABCG2 Specificity” value was “Yes”. In data set [4], the “In vivo Impact on Tumor growth” value was “Yes”.
